In experiment [1] the test system is human JAK1 (a.a. 837-1142). Put plainly: In vitro JAK kinase assay (HTRF), JAK1. It is filed as biochemical. To be noted: JAK2/JAK1 IC50 ratio, 1 mM ATP. Background: TR-FRET usually uses a lanthanide donor and a delayed reading to cut background.
The target in experiment [2] is human JAK1 (a.a. 837-1142) (Homo sapiens, UniProt P23458). Put plainly: In vitro JAK kinase assay (HTRF), JAK1. It is filed as biochemical. The settings on record: 1 mM ATP.
In experiment [3] the test system is T cells in psoriasis lesions. The settings on record: psoriasis patients, topical treatment, skin biopsies; cited from earlier work.
The test system of a further experiment is keratinocyte cell line. To be noted: concentration-dependent; read-out: IC50 for decreasing keratinocyte cell line proliferation; cited from earlier work.

SMILES strings stand for the structures. Bounds are passed on as bounds.

Turning to `N#CC[C@]1(n2cc(-c3ncnc4[nH]ccc34)cn2)C[C@H](N2CCC(Oc3cc(CCO)cc(C(F)(F)F)n3)CC2)C1` [Compound 26, {trans-3-(4-{[4-(2-hydroxyethyl)-6-(trifluoromethyl)pyridin-2-yl]oxy}piperidin-1-yl)-1-[4-(7H-pyrrolo[2,3-d]pyrimidin-4-yl)-1H-pyrazol-1-yl]cyclobutyl]acetonitrile], in experiment [1], the JAK2/JAK1 was more than 10. The molecule also displayed an IC50 in experiment [2] of less than 0.01 µM.

As for `C=C1/C(=C\C=C2/CCC[C@]3(C)[C@@H]([C@H](C)/C=C/[C@@H](O)C4CC4)CC[C@@H]23)C[C@@H](O)C[C@@H]1O` [calcipotriol], in experiment [3], the “CD8(+) IL-17(+) T cells” value is on record as “significant decrease” and the “frequency of IL-22(+) or IFN-γ(+) cells in psoriasis lesions” value was “no changes”. Besides, the IC50 with keratinocyte cell line is 0.01 to 0.1 µM.

Take `C=C1/C(=C\C=C2/CCC[C@]3(C)[C@@H]([C@H](C)OCCC(C)(C)O)CC[C@@H]23)C[C@@H](O)C[C@@H]1O` [maxacalcitol]: the IC50 with keratinocyte cell line is 0.01 to 0.1 µM.

`C=C1/C(=C\C=C2/CCC[C@]3(C)[C@@H]([C@H](C)CC[C@@H](O)C(C)C)CC[C@@H]23)C[C@@H](O)C[C@@H]1O` [tacalcitol]: the IC50 in the experiment with keratinocyte cell line is 0.01 to 0.1 µM.

The values are drawn from patent US20250049817A1, “JAK INHIBITOR WITH A VITAMIN D ANALOG FOR TREATMENT OF SKIN DISEASES” (INCYTE CORPORATION, priority 2020, published 2025).
